Test results as given in article PMC6559721 (Biochemistry, 2017).

Target: BthII1283 (Burkholderia thailandensis, UniProt Q2T5S0)

Q: Which “HPLC and HRMS of methylation product” value does the source give for `Cn1c(=O)[nH]c2nncnc2c1=O` [1-DMT] here?
A: Reumycin (1-DMT) is converted to a single product with an identical retention time
